This assay concerns rat soleus muscle. The assay is classed as cell-based. The note with it: 4 h. How it is done:
Male Harlan Sprague Dawley rats of approximately 200 g mass were used in order to maintain soleus muscle mass less than 40 mg. The animals were fasted for 4 hours prior to sacrifice by decapitation. The skin was stripped from the lower limb which was then pinned out on cork board. The tendo achilles was cut just above os […]. gastrocnemius reflected out from the posterior aspect of the tibia. M. soleus, a small 15-20 mm long, 0.5 mm thick flat muscle on the bone surface of m. gastrocnemius was then stripped clear and the perimysium cleaned off using fine scissors and forceps. M. soleus was then split into equal parts using a blade passed antero-posteriorly through the belly of the muscle to obtain a total of 4 muscle strips from each animal. […] Methods used to determine the nature and purity of rat and human amylin included quantitative amino acid analysis, gas phase amino acid sequencing, reverse phase HPLC and fast-atom-bombardment mass spectrometry. […] The concentration of human amylin present in the medium at the end of the incubation was determined by radioimmunoassay in surfactant-containing buffer. For both human and rat amylin, the actual mass added to the incubation medium was determined by quantitative amino-acid analysis. […] The remaining glycogen was redissolved in 1 mL water and 4 mL scintillation fluid and counted for ^14C. […]

Usually EC50 stands for the concentration needed to bring the measured effect to its halfway point. High values mean weaker potency, low ones greater potency. On to `CC[C@H](C)[C@H](NC(=O)[C@H](C)NC(=O)CNC(=O)[C@H](Cc1ccccc1)NC(=O)[C@H](CC(N)=O)NC(=O)[C@H](CC(N)=O)NC(=O)[C@H](CO)NC(=O)[C@H](CO)NC(=O)[C@H](Cc1c[nH]cn1)NC(=O)[C@@H](NC(=O)[C@H](CC(C)C)NC(=O)[C@H](Cc1ccccc1)NC(=O)[C@H](CC(N)=O)NC(=O)[C@H](C)NC(=O)[C@H](CC(C)C)NC(=O)[C@H](CCCNC(=N)N)NC(=O)[C@H](CCC(N)=O)NC(=O)[C@@H](NC(=O)[C@H](C)NC(=O)[C@@H]1CSSC[C@H](NC(=O)[C@@H](N)CCCCN)C(=O)N[C@@H](CC(N)=O)C(=O)N[C@@H]([C@@H](C)O)C(=O)N[C@@H](C)C(=O)N[C@@H]([C@@H](C)O)C(=O)N1)[C@@H](C)O)C(C)C)C(=O)N[C@@H](CC(C)C)C(=O)N[C@@H](CO)C(=O)N[C@@H](CO)C(=O)N[C@H](C(=O)N[C@@H](CC(N)=O)C(=O)N[C@H](C(=O)NCC(=O)N[C@@H](CO)C(=O)N[C@@H](CC(N)=O)C(=O)N[C@H](C(=O)N[C@@H](Cc1ccc(O)cc1)C(N)=O)[C@@H](C)O)C(C)C)[C@@H](C)O` [human amylin], for which the concentration for a half-maximal effect (EC50) was 0.438 nM.

These data come from patent EP0586592B1, “INSULIN AND AMYLIN CONTAINING COMPOSITION FOR THE TREATMENT OF INSULIN DEFICIENT MAMMALS” (AMYLIN PHARMACEUTICALS, INC., priority 1991, dated 2000).
